In the test the test system is TGase activity (tTGase and Factor XIIIa) in meniscal cells. Put plainly: TGase activity in cultured knee meniscal cells (BP incorporation into N,N-dimethylcasein). In kind it is cell-based, human. Conditions: monolayer culture, 48-72 hrs; IL-1β, TGFβ, TNFα 10 ng/ml; Noc-12 2.5-25 μM; Sin-1 1-10 μM. As to the method: Meniscal cells were maintained in DMEM high glucose and supplemented with 10% FCS, 1% L-glutamine, 100 units/ml Penicillin and 50 μg/ml Streptomycin (Omega Scientific, Tarzana, Calif.) and cultured at 37° C. with 5% CO2. In monolayer cell culture studies involving stimulation by TGFE[…] or IL-1, the cells were placed in DMEM high glucose containing 1% FCS, 1% L-glutamine, 100 units/ml Penicillin and 50 μg/ml Streptomycin. In all other studies, the cells were cultured in complete medium (as described above). Only primary or first passage meniscal cells were studied.
TGase activity was measured by modifications to a previously described method (35). Specifically, we coated 96 well ImmunoModule plates (Nunc, Rochester, N.Y.) with 200 μl of 20 mg/ml N,N-dimethylcasein for 1 hr at 23° C. The N,N-dimethylcasein was removed and nonspecific protein binding was blocked by adding 3% BSA in 100 mM Tris, pH 8.5, 150 mM NaCl, 0.05% Tween-20 (TBST) to each well for an additional 1 hr at 23° C. Then, aliquots of 5 μg of total cellular protein from meniscal or TC28 cells that had been lysed and sonicated (in 5 mM Tris HCl, 0.25 M sucrose, 0.2 mM MgSO4, 2 mM DTT, 0.4 mM PMSF, 0.4% Triton X100, pH 7.5), were added to the plate in triplicate. To measure TGase in extracts of whole menisci, 50 mg dry weight of tissue from the central zone of each medial meniscus was used as the source (after solubilization and sonication) for aliquots of 5 μg of soluble protein. Fifty μl of solution A (100 mM Tris, pH 8.5 and 20 mM CaCl2) was added to all samples for TGase assay, followed by the addition of 50 μl of solution B (100 mM Tris, pH 8.5, 40 mM DTT and freshly added 2 mM 5-(Biotinamido) pentylamine (BP)). The plates were incubated for 1 hr at 37° C. The wells were washed once with TBST containing 1 mM EDTA and then three times with TBST. One hundred μl of a 1:500 dilution of streptavidin-AP in 3% BSA/TBST was added to each well for 1 hr at 23° C. The wells were washed twice with TBST, and 200 μl of solution C (100 mM Tris, pH 9.8, mM NaCl, 5 mM MgCl2, 1 mg/ml of freshly added p-nitrophenylphosphate) was added to each well. Readings at OD410 were taken over 15 minutes. Purified guinea pig liver TGase (Sigma) was used to prepare a standard curve. TGase activity was designated as the amount of BP incorporated into casein (per μg cellular DNA, determined chromogenically following precipitation in perchlorate (28), or, where indicated, per μg protein, determined as previously described (28)).
To directly induce expression of each TGase in meniscal cells, 5×10^5 primary cells were plated in 60 mm dishes and allowed to adhere overnight. We modified (28) the manufacturer's protocol for the Lipofectamine Plus kit (Life Technologies, Grand Island, N.Y.). To optimize the transfection of meniscal cells, we added 2.0 ml of serum-free DMEM/F12 containing 0.00015% digitonin to washed cells and incubated for 3 min at 23° C. Then, media was removed, and cells transfected at 37° C. for 7 hrs, followed by removal of the media and addition of complete DMEM high glucose medium. Transfection of each TGase into TC28 cells was done by the same procedure, with the exception that the digitonin permeabilization step was omitted.

Regarding “IL-1β: Human recombinant IL-1β purchased from R&D Systems”, the “Induction of TGase activity in cultured normal knee meniscal cells” value is “induced increased TGase activity in a donor age-dependent manner”.

For the origin of these results see patent US20040109845A1, “Method for inhibiting articular cartilage matrix calcification” (priority 2001, published 2004).
